Measured values published in patent US20140249218A1, “ADMINISTRATION OF INGENOL MEBUTATE” (LEO Laboratories Limited, priority 2013, published 2014).

Assays:
[1] = Skin permeation of [3H]-PEP005, Sprague Dawley rat split-thickness skin; assay type: in vitro ADME, Sprague Dawley (SD) rat
Method: (§1) The rate and extent of absorption of [^3H]-ingenol mebutate over a 24 h exposure period following topical application of the gel to Wistar (WI) rat, Sprague Dawley (SD) rat, Göttingen mini-pig and human split-thickness skin was also assessed.

[2] = Skin permeation of [3H]-PEP005, Wistar rat split-thickness skin; assay type: in vitro ADME, Wistar (WI) rat
Method: as §1

[3] = Skin permeation of [3H]-PEP005, human split-thickness skin; assay type: in vitro ADME; settings: gel ca 0.05% w/w
Method: as §1

[4] = Skin permeation of [3H]-PEP005, mini-pig split-thickness skin; assay type: in vitro ADME, Göttingen mini-pig
Method: as §1
The maximum hourly flux was 0.44, 0.80, 2.09, and 6.12 ng equiv./cm^2/h for human, mini-pig, SD and WI rat skin, respectively. […] The flux profile for mini-pig was dissimilar to the other species/strains. […] The other three species/strains had similar flux profiles with lag times of ca 1, 2 and 3 h for the human, SD and WI rat skin, respectively. This was followed by steady state flux from 4-24 h, 6-24 h and 8-24 h, respectively. Steady state flux was 0.39, 2.01 and 5.87 ng equiv./cm^2/h for the human, SD and WI rat skin, respectively. […] These differences with the mini-pig group compared to the other three skin groups may have been attributed to the preparation of the split-thickness skin. Due to the hair follicle depth in mini-pig skin, split-thickness skin was prepared at a depth of ca […] compared to ca […] for the other skin groups. Therefore, the thicker layer of dermis for the mini-pig skin may have acted as a reservoir for [3H]-PEP005 prior to partitioning into the receptor fluid.

[5] = assay type: physicochemical; settings: room temperature
Method: For the experiment, a slurry mixture of forms A, X and Y in cyclohexane was stirred for about 48 hours at room temperature. After about 24 hours, the complete sample was transformed into form A (see FIG. 17).
A polymorphic crystalline form of the compound of Formula 1 was characterized and identified as form A″ The stability of form A at room temperature was confirmed by the slurry experiments at room temperature.

[6] = Stress milling (mortar and pestle); assay type: physicochemical; settings: manual grinding about 2, 5 and 10 mins
Method: Crystalline ingenol mebutate is subjected to stress milling to investigate its physico-chemical stability. In the study, crystalline ingenol mebutate is manually ground using a mortar and pestle for durations of about 2, about 5 and about 10 mins.
Crystalline ingenol mebutate was subjected to stress milling (manually using a mortar and pestle) for durations of about 2, about 5 and about 10 mins.

[7] = Conversion of solvate forms upon heating; assay type: physicochemical
[8] = tested on: rat; experiment: In vivo rat micronucleus test
Method: (§2) Carcinogenic evaluations of ingenol mebutate have not been conducted. Ingenol mebutate was not mutagenic in an in vitro Ames test, mouse lymphoma assay, and in vivo rat micronucleus test. Ingenol mebutate was positive in the Syrian hamster embryo (SHE) cell transformation assay at concentrations≧0.1 μg/mL.

[9] = tested on: tumors; experiment: Mouse xenograft models, intratumoral injection; assay type: in vivo
[10] = tested on: isolated human keratinocytes; experiment: Exposure of isolated keratinocytes in vitro; assay type: cell-based; settings: subclinical concentrations
[11] = tested on: tumor cells; experiment: Direct cytotoxic effect at high concentrations; assay type: cell-based; settings: e.g., 100 μg/mL
Description: (§3) Ingenol mebutate is a pleiotropic effector that exerts a direct cytotoxic effect on tumor cells and modulates Protein Kinase C (PKC) isoforms.

[12] = tested on: mouse skin; experiment: Application to mouse skin in vivo, inflammatory mediators; settings: subclinical concentrations
[13] = tested on: squamous cell carcinoma and melanoma tumor; experiment: Mouse xenograft squamous cell carcinoma and melanoma tumor models, topical; assay type: in vivo
[14] = tested on: skin; experiment: UV irradiation studies (photoirritation, photoallergy); assay type: in vivo; settings: ingenol mebutate 0.01%, single and multiple applications
Description: Studies have been conducted to assess the effects of UV irradiation on the skin following single and multiple applications of ingenol mebutate, 0.01%. […] However, excessive exposure to sunlight (including sunlamps and tanning beds) should be avoided or minimized during use of TRADEMARK Gel due to the nature of the disease.

[15] = tested on: human endothelial cells; experiment: PKC dependent activation of endothelial cells, neutrophil adhesion in vitro; assay type: cell-based; settings: e.g., 10 to 100 ng/mL
Description: as §3

[16] = tested on: receptors and enzymes; experiment: Off-target activity in various in vitro assays
[17] = In vitro Ames test; assay type: cell-based
Method: as §2

[18] = tested on: mouse lymphoma; experiment: Mouse lymphoma assay; assay type: cell-based
Method: as §2

[19] = tested on: skin cancer cells; settings: via rapid mitochondrial disruption and primary necrosis; normal cells less sensitive; cited from earlier work
[20] = tested on: human cytochrome P450 isoforms; experiment: In vitro cytochrome P450 inhibition/induction; assay type: in vitro ADME
[21] = tested on: Syrian hamster embryo (SHE) cell; experiment: Syrian hamster embryo (SHE) cell transformation assay; assay type: cell-based
Method: as §2

[22] = tested on: rabbits; experiment: Teratogenicity study, intravenous route, rabbits; assay type: in vivo, rabbit; settings: rabbits
Method: (§4) Teratogenicity studies with ingenol mebutate were performed by the intravenous route in rats and rabbits.
(§5) In rats, ingenol mebutate was not associated with fetal developmental effects at doses up to 5 μg/kg/day (30 μg/m^2/day).
(§6) The fetal NOAEL was 1 μg/kg/day (12 μg/m^2/day).

[23] = Teratogenicity study, intravenous route, rabbits; assay type: in vivo, rabbit; settings: female, rabbit, in vivo, 12 μg/m^2/day, read-out: fetal NOAEL
Method: as §4, §5, §6

[24] = tested on: rats; experiment: Teratogenicity study, intravenous route, rats; assay type: in vivo, rat; settings: 5 μg/kg/day = 30 μg/m^2/day
Method: as §4, §5

[25] = SD rat skin vs human skin, % applied dose
[26] = Sprague Dawley Rat skin, gel ca 0.05% w/w
[27] = WI rat skin vs human skin, % applied dose
[28] = Wistar Rat skin, gel ca 0.05% w/w
[29] = Mini-Pig skin, gel ca 0.05% w/w, NO = not observed
[30] = mini-pig skin vs human skin, % applied dose
[31] = mini-pig skin, gel ca 0.05% w/w

In the case of `C/C=C(/C)C(=O)O[C@H]1C(C)=C[C@]23C(=O)[C@@H](C=C(CO)[C@@H](O)[C@]12O)[C@H]1C(C[C@H]3C)C1(C)C` (stereo in doubt) [[^3H]-ingenol mebutate], the “steady state flux compared to human skin, fold greater” value ([1]; SD rat skin vs human skin) is reported as roughly 5.2 fold, the “dermal delivery compared to human skin, fold greater” value (“dermal delivery … fold greater” for short) [1, 25] is reported as roughly 5.1 fold and the “total absorption compared to human skin, fold greater” value [1, 25] is reported as roughly 4.9 fold. For the same molecule, the maximum hourly flux ([1]; SD rat skin, gel ca 0.05% w/w) was 2.09 ng equiv./cm^2/h, the “Lag Time” value [1, 26] was roughly 2 h and the “Period of Steady State Flux” value [1, 26] was 6 to 24 h. The “Steady State Flux” value [1, 26] was 2.01 ng equiv./cm^2/h, the “Unabsorbed Dose” value ([1]; Sprague Dawley Rat skin, gel ca 0.05% w/w, 24 h exposure) was 94.40 % Applied Dose and the “steady state flux compared to human skin, fold greater” value ([2]; WI rat skin vs human skin) was roughly 15.1 fold. For the same molecule, the “dermal delivery … fold greater” value [2, 27] was roughly 9.2 fold, the “total absorption compared to human skin, fold greater” value [2, 27] was roughly 13.8 fold and the maximum hourly flux ([2]; WI rat skin, gel ca 0.05% w/w) was 6.12 ng equiv./cm^2/h. For the same molecule, the “time post dose at which maximum flux was achieved” value (shortened to “time post dose”) ([2]; WI rat skin, gel ca 0.05% w/w) was 16 h, the “Lag Time” value [2, 28] was roughly 3 h and the “Period of Steady State Flux” value [2, 28] was 8 to 24 h. The “Steady State Flux” value [2, 28] was 5.87 ng equiv./cm^2/h, the “Unabsorbed Dose” value ([2]; Wistar Rat skin, gel ca 0.05% w/w, 24 h exposure) was 90.31 % Applied Dose and the “Lag Time” value [3] was roughly 1 h. For the same molecule, the “Period of Steady State Flux” value [3] was 4 to 24 h, the “Steady State Flux” value [3] was 0.39 ng equiv./cm^2/h and the maximum hourly flux [3] was 0.44 ng equiv./cm^2/h. For the same molecule, the “time post dose” value [3] was 16 h, the “Unabsorbed Dose” value ([3]; 24 h exposure) was 101.09 % Applied Dose and the “Unabsorbed Dose” value ([4]; Mini-Pig skin, gel ca 0.05% w/w, 24 h exposure) was 93.35 % Applied Dose. The “Lag Time” value [4, 29] was “no apparent lag time”, the “Steady State Flux” value [4, 29] was “no apparent lag time or steady state flux observed” and the “dermal delivery … fold greater” value [4, 30] was roughly 7.9 fold. The “total absorption compared to human skin, fold less” value [4, 30] was roughly 1.4 fold, the maximum hourly flux [4, 31] was 0.80 ng equiv./cm^2/h and the “time post dose” value [4, 31] was 1 h.

For `C/C=C(/C)C(=O)O[C@H]1C(C)=C[C@]23C(=O)[C@@H](C=C(CO)[C@@H](O)[C@]12O)[C@H]1[C@@H](C[C@H]3C)C1(C)C` [form A, ingenol mebutate], the “relative stability of forms A, X and Y” value [5] was “most stable form at room temperature” and the “physico-chemical stability on milling” value [6] was “remained unaltered”.

With `C/C=C(/C)C(=O)O[C@H]1C(C)=C[C@]23C(=O)[C@@H](C=C(CO)[C@@H](O)[C@]12O)[C@H]1[C@@H](C[C@H]3C)C1(C)C` [form X, ingenol mebutate] the “time to conversion to form A in slurry” value ([5]; slurry of forms A, X and Y in c-hexane) was “about 24 hours” and the behaviour upon heating [7] was “converted into form A upon heating”.

For `C/C=C(/C)C(=O)O[C@H]1C(C)=C[C@]23C(=O)[C@@H](C=C(CO)[C@@H](O)[C@]12O)[C@H]1[C@@H](C[C@H]3C)C1(C)C` [ingenol mebutate, (1 aR,2S,5R,5aS,6S,8aS,9R,10aR)-5,5a-dihydroxy-4-(hydroxymethyl)-1,1,7,9-tetramethyl-11-oxo-1a,2,5,5a,6,9,10,10a-octahydro-1H2,8a-methanocyclopenta[a]cyclopropa[e]cyclodecen-6-yl(2Z)-2-methylbut-2-enoate], the mutagenicity [8] was “not mutagenic”, the “immune response after intratumoral injection” value [9] was “stimulated a tumor-specific CD8+T cell response with anti-tumor activity against distant secondary tumors” and the effect on keratinocytes [10] was “cytokine release and specific PKC-mediated neutrophil activation”. The “effect on cells at high concentrations” value [11] was “induces mitochondrial swelling and loss of cell membrane integrity leading to cell death”, the “release of inflammatory mediators in mouse skin” value [12] was “induced the release of inflammatory mediators IL-8/MIP-2 and TNF-α resulting in neutrophil recruitment and activation” and the effect on tumors [13] was “removes tumors and prevents tumor recurrence”. The “Lag Time” value [1, 26] was 2 h, the “Period of Steady State Flux” value [1, 26] was 6.24 h and the “Steady State Flux” value [1, 26] was 2.01 ng equiv./cm^2/h. The “photoirritation or photoallergy effects” value [14] was “did not demonstrate any potential for photoirritation or photoallergy effects”, the “effect on endothelial cells at subclinical concentrations” value [15] was “stimulates PKC dependent activation of human endothelial cells to support neutrophil adhesion” and the off-target activity [16] was “did not inhibit or stimulate receptors and enzymes”. The mutagenicity [17] was “not mutagenic”, the mutagenicity [18] was “not mutagenic” and the “toxicity for skin cancer cells” value [19] was “highly toxic”. The “Lag Time” value [2, 28] was 3 h, the “Period of Steady State Flux” value [2, 28] was 8.24 h and the “Steady State Flux” value [2, 28] was 5.87 ng equiv./cm^2/h. The “inhibition or induction of cytochrome P450 isoforms” value [20] was “does not inhibit or induce human cytochrome P450 isoforms”, the “concentrations positive in SHE cell transformation assay” value ([21]; Syrian hamster, Syrian hamster embryo (SHE) cells) was no less than 100 ng/mL and the cell transformation result ([21]; concentrations≧0.1 μg/mL) was “positive”. For the same molecule, the “Lag Time” value [3] was 1 h, the “Period of Steady State Flux” value [3] was 4.24 h and the “Steady State Flux” value [3] was 0.39 ng equiv./cm^2/h. For the same molecule, the “doses at which maternal toxicity (increased breathing) was observed” value ([22]; 1 μg/kg/day = 12 μg/m^2/day) was no less than 1 µg/kg/day, the “doses with slight increase in incidence of incompletely ossified cervical vertebral arches” value ([22]; 2 μg/kg/day = 24 μg/m^2/day) was no less than 2 µg/kg/day and the embryo-fetal findings ([22]; 4 μg/kg/day (48 μg/m^2/day), marginal, not statistically significant) was “slight increase in embryonic deaths, an increase in jugular fusion to the maxilla and a variation in the origin of arteries arising from the aortic arch”. The NOAEL [23] was 0.001 mg/kg/day and the “doses not associated with fetal developmental effects” value [24] was “up to 5 μg/kg/day”.
